# Source: patent publication US20120225862A1, “HETEROARYL BENZAMIDES, COMPOSITIONS AND METHODS OF USE” (AUCKLAND UNIVSERVICES LIMITED, priority 2009, published 2012)
# Experiments:
# [1] = tested on: RCC4; test: XTT IC50 / viability assay, RCC4 cells; type: cell-based, human; details: Homo sapiens, RCC4, 96 h; XTT assay, four days
# Description: (§1) RCC4 parental and RCC4 with VHL-reintroduced (RCC4/VHL), SN12C and SN12C-CSCG-VHL shRNA were maintained in DMEM supplemented with 10% FCS.
# (§2) IC50 values for compounds were determined by XTT assay. For 2,3-bis[2-methoxy-4-nitro-5-sulfophenyl]-2H-tetrazolium-5-carboxanilide inner salt (XTT) assays, five thousand cells were plated in 96-well plates. The next day, vehicle or drug was added to each well and incubated for four days. Media was aspirated and phenol red-free medium with 0.3 mg/mL XTT and 2.65 ug/mL N-methyl dibenzopyrazine methyl sulfate was added. This was incubated at 37° C. for 1-2 hours and absorbance was read at 450 nm. IC50 values for each compound were calculated using linear interpolation.
# (§3) For 2,3-bis[2-methoxy-4-nitro-5-sulfophenyl]-2H-tetrazolium-5-carboxanilide (XTT) assays, five thousand cells were plated in 96-well plates. The next day, vehicle (DMSO) or drug was added by serial dilution. Four days later, media were aspirated, XTT solution (0.3 mg/ml of XTT (Sigma), 2.65 mg/ml N-methyl dibenxopyrazine methyl sulfate (Simga) in phenol red-free media) was added, and the plates were incubated at 37° C. for 1-2 hours. Metabolism of XTT was quantified by measuring the absorbance at 450 nm. IC50s were calculated using linear interpolation. For clonogenic survival assays, three hundred cells were plated per 60 mm tissue culture dish. The cells were allowed to attach overnight and then treated with vehicle or drug for 14 days. Colonies were fixed and stained with crystal violet (0.1% crystal violet in 95% ethanol). All conditions were measured in triplicate and each experiment was done in duplicate or triplicate. To determine necrosis, cells were treated with drug for a given time point. Media and cells were collected, centrifugated, and resuspended in 0.4% trypan blue (Invitrogen). Live and dead cells were counted on a hematocytometer.
# [2] = tested on: RCC4/VHL; test: XTT IC50 assay, selectivity RCC4 versus RCC4 with VHL-reintroduced; type: cell-based, human; details: selectivity ratio of XTT IC50 values, RCC4 vs RCC4/VHL
# Description: as §1, §2, §3
Compound,IC50 [1] [nM],Ratio (RCC4:RCC/VHL) [2]
"O=C(Nc1cccnc1)c1ccc(CNS(=O)(=O)c2ccc(Cl)c(Cl)c2)cc1 [Example 70, 4-((3,4-Dichlorophenylsulfonamido)methyl)-N-(pyridin-3-yl)benzamide]",1000 to 20000,b (“b” reflects from 10 to 100)
"O=C(Nc1cccnc1)c1ccc(CNS(=O)(=O)c2ccc3ccccc3c2)cc1 [Example 72, 4-((Naphthalene-2-sulfonamido)methyl)-N-(pyridin-3-yl)benzamide]",1000 to 20000,b (“b” reflects from 10 to 100)
"CN(C)c1cccc2c(S(=O)(=O)NCc3ccc(C(=O)Nc4cccnc4)cc3)cccc12 [Example 73, 4-((5-(Dimethylamino)naphthalene-1-sulfonamido)methyl)-N-(pyridin-3-yl)benzamide]",< 1000,c (“c” reflects a ratio of >100)
"O=C(Nc1cccnc1)c1ccc(CNS(=O)(=O)c2ccc3c(c2)CCC3)cc1 [Example 74, 4-((2,3-Dihydro-1H-indene-5-sulfonamido)methyl)-N-(pyridin-3-yl)benzamide]",< 1000,c (“c” reflects a ratio of >100)
"CN(C)C1Cc2ccc(S(=O)(=O)NCc3ccc(C(=O)Nc4cccnc4)cc3)cc2C1 (centres unmarked) [Example 75, 4-((2-(Dimethylamino)-2,3-dihydro-1H-indene-5-sulfonamido)methyl)-N-(pyridin-3-yl)benzamide]",< 1000,c (“c” reflects a ratio of >100)
"CN(C)Cc1ccc(S(=O)(=O)NCc2ccc(C(=O)Nc3cccnc3)cc2)cc1 [Example 77, 4-[({4-[(Dimethylamino)methyl]phenyl}sulfonyl)amino]methyl-N-(3-pyridinyl)benzamide]",< 1000,b (“b” reflects from 10 to 100)
"CCN(CC)Cc1ccc(S(=O)(=O)NCc2ccc(C(=O)Nc3cccnc3)cc2)cc1 [Example 78, 4-{[({4-[(Diethylamino)methyl]phenyl}sulfonyl)amino]methyl}-N-(3-pyridinyl)benzamide]",< 1000,c (“c” reflects a ratio of >100)
"CCCN(CCC)Cc1ccc(S(=O)(=O)NCc2ccc(C(=O)Nc3cccnc3)cc2)cc1 [Example 79, 4-{[({4-[(Dipropylamino)methyl]phenyl}sulfonyl)amino]methyl}-N-(3-pyridinyl)benzamide]",< 1000,b (“b” reflects from 10 to 100)
"O=C(Nc1cccnc1)c1ccc(CNS(=O)(=O)c2ccc(CN3CCCC3)cc2)cc1 [Example 80, 4-[({[4-(1-Pyrrolidinylmethyl)phenyl]sulfonyl}amino)methyl]-N-(3-pyridinyl)-benzamide]",< 1000,c (“c” reflects a ratio of >100)
"O=C(Nc1cccnc1)c1ccc(CNS(=O)(=O)c2ccc(CN3CCCCC3)cc2)cc1 [Example 81, 4-[({[4-(1-Piperidinylmethyl)phenyl]sulfonyl}amino)methyl]-N-(3-pyridinyl)benzamide]",< 1000,b (“b” reflects from 10 to 100)
"O=C(Nc1cccnc1)c1ccc(CNS(=O)(=O)c2ccc(CN3CCCCCC3)cc2)cc1 [Example 82, 4-[({[4-(1-Azepanylmethyl)phenyl]sulfonyl}amino)methyl]-N-(3-pyridinyl)benzamide]",< 1000,c (“c” reflects a ratio of >100)
"O=C(Nc1cccnc1)c1ccc(CNS(=O)(=O)c2ccc(CN3CCOCC3)cc2)cc1 [Example 83, 4-[({[4-(4-Morpholinylmethyl)phenyl]sulfonyl}amino)methyl]-N-(3-pyridinyl)benzamide]",< 1000,c (“c” reflects a ratio of >100)
"COC1CCN(Cc2ccc(S(=O)(=O)NCc3ccc(C(=O)Nc4cccnc4)cc3)cc2)CC1 [Example 84, 4-{[({4-[(4-Methoxy-1-piperidinyl)methyl]phenyl}sulfonyl)amino]methyl}-N-(3-pyridinyl)benzamide]",< 1000,c (“c” reflects a ratio of >100)
"CN1CCN(Cc2ccc(S(=O)(=O)NCc3ccc(C(=O)Nc4cccnc4)cc3)cc2)CC1 [Example 85, 4-{[({4-[(4-Methyl-1-piperazinyl)methyl]phenyl}sulfonyl)amino]methyl}-N-(3-pyridinyl)benzamide]",< 1000,c (“c” reflects a ratio of >100)
"CN(C(=O)c1ccc(CNS(=O)(=O)c2ccc(C(C)(C)C)cc2)cc1)c1cccnc1 [Example 89, 4-[(4-tert-Butylphenylsulfonamido)methyl]-N-methyl-N-(3-pyridinyl)benzamide]",1000 to 20000,a (“a” reflects a ratio of RCC4/RCC-VHL+ ranging from 1 to 10)
"CN(C(=O)c1ccc(CNS(=O)(=O)c2ccccc2)cc1)c1cccnc1 [Example 90, N-Methyl-4-{[(phenylsulfonyl)amino]methyl}-N-(3-pyridinyl)benzamide]",1000 to 20000,a (“a” reflects a ratio of RCC4/RCC-VHL+ ranging from 1 to 10)
"O=C(Nc1cccnc1)c1ccc(CNS(=O)(=O)c2ccc(I)cc2)cc1 [Example 94, 4-((4-Iodophenylsulfonamido)methyl)-N-(pyridin-3-yl)benzamide]",1000 to 20000,a (“a” reflects a ratio of RCC4/RCC-VHL+ ranging from 1 to 10)
"C#Cc1ccc(S(=O)(=O)NCc2ccc(C(=O)Nc3cccnc3)cc2)cc1 [Example 95, 4-((4-Ethynylphenylsulfonamido)methyl)-N-(pyridin-3-yl)benzamide]",1000 to 20000,b (“b” reflects from 10 to 100)
"COCC#Cc1ccc(S(=O)(=O)NCc2ccc(C(=O)Nc3cccnc3)cc2)cc1 [Example 98, 4-{[({4-[3-(Methyloxy)-1-propynyl]phenyl}sulfonyl)amino]methyl}-N-(3-pyridinyl)benzamide]",1000 to 20000,a (“a” reflects a ratio of RCC4/RCC-VHL+ ranging from 1 to 10)
"O=C(Nc1cccnc1)c1ccc(CNS(=O)(=O)c2ccc(-c3cn(Cc4ccccc4)nn3)cc2)cc1 [Example 102, 4-[({[4-(1-benzyl-1H-1,2,3-triazol-4-yl)phenyl]sulfonyl}amino)methyl]-N-(3-pyridinyl)benzamide]",> 20000,a (“a” reflects a ratio of RCC4/RCC-VHL+ ranging from 1 to 10)
"O=C(Nc1cccnc1)c1ccc(CNS(=O)(=O)c2ccc(CCCO)cc2)cc1 [Example 104, 4-[({[4-(3-Hydroxypropyl)phenyl]sulfonyl}amino)methyl]-N-(3-pyridinyl)benzamide]",< 1000,c (“c” reflects a ratio of >100)
"CC(C)(C)c1ccc(S(=O)(=O)NCc2ccc(C(=O)Nc3cnccc3Cl)cc2)cc1 [Example 112, 4-({[(4-tert-Butylphenyl)sulfonyl]amino}methyl)-N-(4-chloro-3-pyridinyl)benzamide]",> 20000,a (“a” reflects a ratio of RCC4/RCC-VHL+ ranging from 1 to 10)
"CC(C)(C)c1ccc(S(=O)(=O)NCc2ccc(C(=O)Nc3cccnc3Cl)cc2)cc1 [Example 113, 4-({[(4-tert-Butylphenyl)sulfonyl]amino}methyl)-N-(2-chloro-3-pyridinyl)benzamide]",> 20000,a (“a” reflects a ratio of RCC4/RCC-VHL+ ranging from 1 to 10)
"CC(C)(C)c1ccc(S(=O)(=O)NCc2ccc(C(=O)Nc3ccc(N4CCOCC4)nc3)cc2)cc1 [Example 117, 4-({[(4-tert-Butylphenyl)sulfonyl]amino}methyl)-N-[6-(4-morpholinyl)-3-pyridinyl]benzamide]",> 20000,a (“a” reflects a ratio of RCC4/RCC-VHL+ ranging from 1 to 10)
"CC(C)(C)c1ccc(S(=O)(=O)NCc2ccc(C(=O)Nc3cnccc3C(F)(F)F)cc2)cc1 [Example 122, 4-({[(4-tert-Butylphenyl)sulfonyl]amino}methyl)-N-[4-(trifluoromethyl)-3-pyridinyl]benzamide]",1000 to 20000,a (“a” reflects a ratio of RCC4/RCC-VHL+ ranging from 1 to 10)
"CC(C)(C)c1ccc(S(=O)(=O)NCc2ccc(C(=O)Nc3cccnc3F)cc2)cc1 [Example 123, 4-({[(4-tert-Butylphenyl)sulfonyl]amino}methyl)-N-(2-fluoro-3-pyridinyl)benzamide]",1000 to 20000,a (“a” reflects a ratio of RCC4/RCC-VHL+ ranging from 1 to 10)
"O=C(Nc1cccnc1)c1ccc(CNS(=O)(=O)c2cccc(N3CCOCC3)c2)cc1 [Example 126, 4-[({[3-(4-Morpholinyl)phenyl]sulfonyl}amino)methyl]-N-(3-pyridinyl)benzamide]",1000 to 20000,b (“b” reflects from 10 to 100)
"O=C(Nc1cccnc1)c1ccc(CNS(=O)(=O)c2ccc(N3CCOCC3)cc2)cc1 [Example 127, 4-[({[4-(4-Morpholinyl)phenyl]sulfonyl}amino)methyl]-N-(3-pyridinyl)benzamide]",< 1000,b (“b” reflects from 10 to 100)
